The source made the active and inactive calls. The rule behind the calls is not given here.
Key:
Escherichia coli = assay: Antibacterial activity against sEscherichia coli at 100 ug/disk; assay type: functional
Klebsiella pneumoniae = assay: Antibacterial activity against Klebsiella pneumoniae at 100 ug/disk; assay type: functional
Bacillus subtilis = assay: Antibacterial activity against Bacillus subtilis at 100 ug/disk; assay type: functional
Staphylococcus aureus = assay: Antibacterial activity against Staphylococcus aureus at 100 ug/disk; assay type: functional
Artemia = assay: Toxicity against brine shrimp; assay type: organism-based; conditions: in vivo

Compound | zone of inhibition at 100 µg/disc (Escherichia coli; read-out: IZ) [mm] | zone of inhibition at 100 µg/disc (Klebsiella pneumoniae; read-out: IZ) [mm] | zone of inhibition at 100 µg/disc (Bacillus subtilis; read-out: IZ) [mm] | zone of inhibition at 100 µg/disc (Staphylococcus aureus; read-out: IZ) [mm] | Activity (Artemia) | Activity (Escherichia coli) | Activity (Klebsiella pneumoniae) | Activity (Bacillus subtilis) | Activity (Staphylococcus aureus)
CC(=O)OCc1nccc2c1C(=O)C(O)=C(C)C2=O | 12 | 12 | 16 | 14 | Non-toxic |  |  |  | 
COc1cc(O)c2c(c1)C(COC(C)=O)N(C=O)C=C2 (stereo not given) |  |  |  |  | Non-toxic | inactive | inactive | inactive | inactive

— ChEMBL document CHEMBL1141854, “A new 1,2-dihydroisoquinoline from the sponge petrosia similis” (J Nat Prod, 1999)
